Like-named read-outs stand apart in the source and are kept apart here.
How the values were obtained:
[1] = tested on: indomethacin-induced ulcers; assay: Indomethacin-induced ulcers (indomethacin ulcer preventing effect); type: in vivo, male rats of the Crj : Wistar strain; settings: rats; for Ulcer index (aver. ± SE): indomethacin 10 mg/kg oral ulcer, index 0-4
Method: (§1) As test samples, we used the PGE as obtained in Examples 2 to 52 as described herein, 13,14-dihydro-15-keto-PGE2 (produced by Funakoshi & Co.) being employed as a control reference.
(§2) Each group of test animals used consisted of 8 to 10 male rats of the Crj : Wistar strain, weighing 180 to 230 g. Test animals were fasted for 24 hours before the oral administration of the test samples; in the case of development of confinement-stress induced ulcers through immersion in water, 10 minutes after oral administration of the test specimens, the aminals were confined in a stress cage developed by Univ. of Tokyo, then immersed up to the ensiform process of sternum in water at 23°C for 4 hours and sacrificed; in the case of formation of indomethacin-induced ulcers, shortly after the materials were given, animals were given indomethacin orally at a dose of 10 mg/kg and sacrificed after 5 hours.
(§3) The stomacks were taken out, followed by fixation with 1 % formalin, and incised along the greater curvature to carry out investigation under an illuminated magnifier for ulceration. The degree and extent of lesion and ulcer were rated based on the ulceration index being classified into the following five numerical categories: • 0: normal, with no lesion detected; • 1: bleeding or erosion of mucosa; • 2: development of less than 5 small ulcers (not greater than 2 mm in diameter); • 3: generation of not less than 5 small ulcers or a large ulcer (not less than 2 mm in diameter); • 4: generation of not less than 2 large ulcers.
(§4) On the basis of the criteria that the rats with the ulceration index of not less than "2", the ulcer inhibition rate (EDso) was calculated from ulcer-generation ratio in the control and the ratio of the test specimens.

[2] = tested on: confinement-stress induced ulcers through immersion in water; assay: Confinement-stress induced ulcers through immersion in water (hydrorestraint stress ulcer preventing effect); type: in vivo, male rats of the Crj : Wistar strain; settings: for inhibition at 0.3 mg/kg: dosage 0.3 mg/kg; for inhibition at 1 mg/kg: dosage 1 mg/kg; for inhibition at 3 mg/kg: dosage 3 mg/kg; for ulcer inhibiting effect: conclusion in words from Table 3
Method: as §1, §2, §3, §4

[3] = tested on: trachea; assay: Tracheal relaxation, isolated tracheal rings constricted with histamine; design: species or system male gunea pig; settings: guinea pig trachea, inhibition of constriction under histamine 5.4 x 10^-4 M, IC50 class, read-out: Tracheal relaxation effect
Method: A male gunea pig (of about 300 g in weight) was struck to death, and its artery was cut to dehematize. Its trachea, after having been extracted, was cut open lengthwise on the opposite side to the trachea smooth muscle, and seven tracheal rings were connected by string in a chain-like pattern, same being hung in a Magnus tube.
Trachea was brought to rest for 60 - 90 minutes and until tracheal equilibrium was reached. Thereafter, 5.4 x 10 ^-4 M of histamine was administered in such manner that it was cumulatively administered at 6 minutes' intervals after a constriction peak was reached. Tracheal relaxation with the material tested was expressed in terms of ratio of constrictional inhibition under histamine administering, and values for IC50 were determined. + : IC50 < 10^-7 M ± : 10^-5 M ≦ IC50 ≦ 10^-7 M -: 10^-5 M < IC50

[4] = tested on: ileum; assay: Intestinal constriction effect, isolated ileum in Magnus tube; design: species or system male Wister rat; settings: rat ileum, constriction relative to acetylcholine, ED50 class
Method: A male Wister rat (of 250 - 300g in weight) was struck to death, and immediately its carotid artery was cut to dehematize. An ileum portion located about 10 cm from the cecum was extracted, and after its contents were washed away with a Tyrode liquid, a 1.5 - 2 cm long part of it was cut off and hung in a Magnus tube.
The constriction of the ileum was brought to rest for 15 - 20 minutes until the ileum was allowed to be stabilized, and subsequently the ileum was constricted with […]/mt of acetylcholine. After constructions of same magnitude were had two times, the material to be tested was cumulatively administered at one- minute intervals.
Constrictions with the material tested were expressed in terms of ratios, based on constriction per 10 g/m t of acetylcholine, and values for ED50 were determined. + : EDso < 10^-6 M ±: 10^-4 M ≦ ED50 ≦ 10^-6 M -: 10^-4 M < ED50

[5] = tested on: uterus; assay: Uterine constriction, isolated uterus in Magnus tube; design: species or system female rat; settings: rat uterus, constriction relative to 1 mU oxytocin = 100, EC50 class; read-out: Uterus constriction effect
Method: A female rat (of 150g in weight) was dehematized to death, and its uterus was taken out, which was cut to a length of 1.5 - 2.5 cm. The cut uterus was hung in a magnus tube. The uterus was constricted several times with 1 mU Oxytocin. After stable uterine movement was obtained, the material to be tested was independently administered. Constrictions with the material were expressed in terms of ratios based on constriction of 1 mU of oxytocin = 100, and values of EC50 were determined on the following standards. +:EC50 < 10^-7 M ±:10^-5 M ≦ EC50 ≦ 10^-7 M -: 10^-5 M < ECso

[6] = Rattus norvegicus, stress ulcer, rats, oral, read-out: Inhibition factor (%)
[7] = Rattus norvegicus, stress ulcer, rats, oral, ulcer inhibition rate, ulceration index not less than 2 counted (Table 1), read-out: ED50
[8] = Rattus norvegicus, po, hydrorestraint stress-ulcer preventing effect, procedure of Test Example 1 (Table 3), read-out: Ulcer inhibiting effect ED50

Row | Structure (SMILES) | inhibition at 0.3 mg/kg [2, 6] | inhibition at 1 mg/kg [2, 6] | ED50 [2, 7] | inhibition at 3 mg/kg [2, 6] | IC50 [3] | ED50 [2, 8] | EC50 [4] | EC50 [5] | further results
1 | CCCCCC(=O)CC[C@H]1[C@H](O)CC(=O)[C@@H]1CC(=O)CCCCC(=O)OCC [(9)] | 37.5% | 75% | 0.45 mg/kg |  |  |  |  |  | inhibition at 1 mg/kg ([1]; Rattus norvegicus, indomethacin ulcer, oral, dosage 1 mg/kg, read-out: Inhibition factor (%)): 37.5%; inhibition at 3 mg/kg ([1]; Rattus norvegicus, indomethacin ulcer, oral, dosage 3 mg/kg, read-out: Inhibition factor (%)): 50.5%; ED50 ([1]; Rattus norvegicus, indomethacin ulcer, oral, ulcer inhibition rate (Table 2)): 3 mg/kg; Ulcer index (aver. ± SE) ([1]; dosage 1 mg/kg): 2.1±0.3; Ulcer index (aver. ± SE) ([1]; dosage 3 mg/kg): 1.5±0.3
2 | CCCCCC(=O)CC[C@H]1[C@H](O)CC(=O)[C@@H]1CC(=O)CCCCC(=O)OCCCC [(10)] |  | 25.5% | 1.5 mg/kg | 78.4% |  |  |  |  | 
3 | CCOC(=O)CCCCC(=O)C[C@H]1C(=O)C[C@@H](O)[C@@H]1CCC(=O)CCCC(C)C [(36)] | 22.6% | 57% | 0.8 mg/kg |  |  |  |  |  | 
4 | CCCCCCC(=O)CC[C@H]1[C@H](O)CC(=O)[C@@H]1CC(=O)CCCCC(=O)OCC [(37)] |  | 8.1% | 3 mg/kg | 45.9% |  |  |  |  | inhibition at 6 mg/kg ([2]; Rattus norvegicus, stress ulcer, rats, oral, dosage 6 mg/kg, read-out: Inhibition factor (%)): 79.7%
5 | CCCCCC(=O)CC[C@H]1[C@H](C)CC(=O)[C@@H]1CC(=O)CCCCC(=O)OC [(38)] | 8.1% | 45.9% | 1.5 mg/kg | 79.7% |  |  |  |  | 
6 | CCCCCC(=O)CC[C@H]1[C@H](C)CC(=O)[C@@H]1CC(=O)CCCCC(=O)OCC [(39)] | 30.2% | 77.5% | 0.5 mg/kg | 85.3% |  |  |  |  | 
7 | CCCCC[C@H](O)/C=C/[C@H]1[C@H](O)CC(=O)[C@@H]1C/C=C\CCCC(=O)O [A] |  |  |  |  | < 100 nM | 0.5 mg/kg | < 1000 nM | < 100 nM | 
8 | CCCCC[C@H](O)/C=C/[C@H]1[C@H](O)CC(=O)[C@@H]1C/C=C\CCCC(=O)OCC [B] |  |  |  |  | < 100 nM | 0.4 mg/kg | < 1000 nM | 100 to 10000 nM | 
9 | CCCCCC(=O)CC[C@H]1[C@H](O)CC(=O)[C@@H]1C/C=C\CCCC(=O)O [Material (1), 13, 14-dihydro-15-keto-PGE2, reference compound] |  |  |  |  |  | > 20 mg/kg | > 100000 nM | 100 to 10000 nM | IC50 ([3]; Cavia porcellus): 100 to 10000 nM; ulcer inhibiting effect [2]: no pharmacological or physiological effect; antiulcerative effect ([2]; conclusion in words from Tables 1 and 2): no antiulcerative effect
10 | CCCCCC(=O)CC[C@H]1[C@H](O)CC(=O)[C@@H]1C/C=C\CCCC(=O)OCC [Material (3), 13, 14-dihydro-15-keto-PGE2 ethyl ester] |  |  |  |  | > 10000 nM | 1.5 mg/kg | > 100000 nM | > 10000 nM | ulcer inhibiting effect [2]: a high degree of ulcer inhibiting effect
